Read-outs that look alike come from different tables or passages of the source. Square brackets hold non-standard residues; d marks the D form. Peptide text beside a SMILES is read from it. * marks the point of attachment. Nle = CCCC[C@H](N)C(=O)O; Cbz = O=C(OCc1ccccc1)*
Key:
Format in all cases: cell-based, human
[1] = test system: mammary stem/progenitor cells in mammospheres; experiment: Primary and secondary mammosphere formation (in vitro self-renewal assay)
[2] = test system: mammosphere branching morphogenesis; experiment: Mammosphere branching morphogenesis in 3-D Matrigel culture; conditions: 300 nM Cyclopamine
Method: Briefly, 30 mammospheres were suspended in 1 ml of BD Matrigel™ Matrix (Cat. 354234, BD Biosciences, Palo Alto, Calif.) and Ham's F-12 medium (BioWbittaker) with 5% serum at a ratio of 1:1, and plated 1 ml of the mixture into one well of 24-well cold plates and each group of mammospheres was performed in quadruplicates. After the matrigel was solidified, 1 ml of Ham's F-12 medium (BioWhittaker) with 5% serum was added to the top of the matrigel. The experiments were repeated with mammospheres derived from at least three different patients.

Bmi-1 mRNA = Bmi-1 mRNA in mammospheres by real-time RT-PCR; conditions: for block of Shh-induced Bmi-1 expression: Shh with Cyclopamine or GSI
[3] = test system: PTCH1, Gli1, Gli2 and HES1 mRNA; experiment: Hh and Notch pathway gene mRNA in mammospheres by real-time RT-PCR; conditions: for block of Shh-induced PTCH1, Gli1, Gli2 and HES1 expression: 3 μg/ml Shh with 300 nM Cyclopamine or 5 μM GSI; for block of DSL-induced HES1, PTCH1, Gli1 and Gli2 expression: 10 μM DSL with 5 μM GSI or 300 nM Cyclopamine
Method: Single cells from epithelial organoids were plated in 6-well ultra-low attachment plates (Coming) at a density of 100,000 viable cells/ml. Cells were cultured in 2 ml of a serumfree MEBM per well. […] Cells were incubated for 7 days in the presence of different treatments as follows. For the treatment with Hedgehog agonists and antagonist, Shh was used at 1.5 μg/ml, 3 μg/ml and 6 μg/ml in the presence or absence of 300 riM of CP or 5 μM of GSI. CP was used at 150 nM, 300 nM and 600 nM concentrations, and the control was 12% 1×PBS with 0.06% BSA. For the treatment with Notch agonists and antagonist, DSL was used at 10 μM in the presence or absence of 5 μM of GSI or 300 nM of CP, and the controls consisted of 10 μM of scrambled Notch peptide. All treatments were continued for 10 days, with agonists and antagonists added every two or three days when medium was changed.
Mammospheres were then collected for in vitro self-renewal assays and Real-time quantitative RT-PCR. For reverse-transcriptase reactions, 1 μg of total RNA from mammospheres or differentiated cells on collagen-coated plates was reverse transcribed with 200 U M-MLV Reverse Transcriptase (GibcoBRL) at 42° C. for 1 hour in the presence of 5 mM each of dATP, dCTP, dGTP and dTTP, 4 μl 5× 1 st strand buffer (GibcoBRL), 0.01M DDT, 1 U RNA Guard RNase inhibitor (GibcoBRL), and 2.5 µM random primers in a total volume of 20 μl. The reaction was terminated by heating to 95° C. for 3 minutes. Real-time quantitative PCR (TaqMan™) primers and probes were purchased from AppliedBiosytems as Assays-on-Demand™ Gene Expression Products. Real-time PCRs were performed following the supplier's instructions (Applied Biosystems). 20 μl of PCR mixture contained 10 μl of 2× Taqman™ universal PCR Master Mix, 1 μl of 20× working stock of gene expression assay mix, and 50 ng of RNA converted cDNA. PCR was performed in a ABI PRISM® 7900HT sequence detection system with 384-Well block module and automation accessory (Applied Biosystems) by incubation at 50° C. for 2 min and then 95° C. for 10 min followed by 40 amplification cycles (15 s of denaturation at 95° C. and 1 min of hybridization and elongation at 60° C.). The reaction for each sample was performed in quadruplicates. Fluorescence of the PCR products was detected by the same apparatus. The number of cycles that it takes for amplification plot to reach the threshold limit, the Ct-value was used for quantification. RPLP0 was used for normalization.
In order to determine whether activation of the Notch pathway could affect Hh targets, Notch signaling was activated by utilizing the DSL ligand which binds to all Notch receptors (Dontu et al., 2004).

SMILES	Cyclopamine inhibition of primary mammosphere formation on addition of Shh [1]	Cyclopamine inhibition of secondary mammosphere formation on addition of Shh [1]	block of DSL-stimulated mammary stem cell self-renewal [1]	block of the Shh effect on mammary stem cell self-renewal [1]	decrease of average cell number in primary mammospheres vs control [1] [%]	decrease of average cell numbers per secondary mammosphere [1] [%]	decrease of primary mammosphere formation vs control [1] [%]	decrease of secondary mammospheres vs control [1] [%]	effect of Cyclopamine on the effects of Gli1 or Gli2 overexpression [1]	effects on mammosphere formation, lowest dose [1]	effect on branch formation [2]	block of Shh-induced Bmi-1 expression (Bmi-1 mRNA)	block of Shh-induced PTCH1, Gli1, Gli2 and HES1 expression [3]	block of DSL-induced HES1, PTCH1, Gli1 and Gli2 expression [3]	block of the Shh effect on mammary stem cell self-renewal ([1]; 3 μg/ml Shh with 300 nM Cyclopamine or 5 μM GSI)	block of DSL-stimulated mammary stem cell self-renewal ([1]; 10 μM DSL with 5 μM GSI or 300 nM Cyclopamine)	block of DSL-induced Bmi-1 expression (Bmi-1 mRNA; DSL with GSI or Cyclopamine)
CC1=C2C[C@H]3[C@@H](CC=C4C[C@@H](O)CC[C@@]43C)[C@@H]2CC[C@]12O[C@@H]1C[C@H](C)CN[C@H]1[C@H]2C [Cyclopamine]	reversal of inhibition	reversed	not	blocked	51	56	45	54	unaffected	no effects	almost completely blocked branch formation	blocked	partially blocked	partially blocked and not	–	–	–
CCCC[C@@H](C=O)NC(=O)[C@H](CC(C)C)NC(=O)[C@H](CC(C)C)NC(=O)OCc1ccccc1 [GSI, Z-Leu-Leu-Nle-CHO] (Cbz-Leu-Leu-[Nle]-aldehyde)	–	–	–	–	–	–	–	–	–	–	–	not	not	completely blocked	did not block	blocked	completely blocked

Source: patent US20080019961A1, “Hedgehog signaling pathway antagonist cancer treatment” (Regents of the University of Michigan, priority 2006, published 2008)
